Values quoted from earlier work, collected in patent US7958848B2, “Method for artificial breeding of farmed sturgeon” (priority 2009, dated 2011).

System: goldfish
Details: 1-5 mg/kg body weight in combination with pituitary gland

SMILES: O=c1[nH]c2ccccc2n1CCCN1CCC(n2c(=O)[nH]c3cc(Cl)ccc32)CC1 [Domperidone]
- Induction of spawning and gonadal development: induced spawning and gonadal development
